From the METLIN SMRT retention time set (Domingo-Almenara et al. 2019) come the findings set out here.

A short description of the data set: gradient 5% acetonitrile 3 min, to 50% in 2 min, to 85% in 15 min, held 3 min, 100 µL/min. The following applies: column: Zorbax Extend-C18 2.1 x 50 mm; eluents: water / acetonitrile, 0.1% formic acid. The method, boiled down:
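Retention time was recorded from adduct peaks, which were picked computationally and each inspected manually. Pure standards ran in mixtures of ~100 molecules on HPLC coupled to a quadrupole time-of-flight mass spectrometer, in positive and negative ionization mode, through a Zorbax Extend-C18 column (2.1 × 50 mm, 1.8 μm) at 100 μL/min. Eluents were water and acetonitrile, each with 0.1% formic acid.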
`COC(=O)c1cccc(N2C=C(C#N)S(=O)(=O)c3ccc(Cl)cc32)c1` registered an RP-LC retention time of 930 s. For `CC(=O)c1cccc(NC(=O)CN2C(=O)C3CCCCN3c3ccc(C(=O)N4CCCC4)cc32)c1` (centres undefined) the value was 780 s; for `Cc1nc(N2CCCC2)cc(N2CCN(C(=O)c3ccc(Br)o3)CC2)n1`, 645 s. To `COc1ccc(S(=O)(=O)N2CCCC(C(=O)NCCC3=CCCCC3)C2)cc1C` (centres undefined) belongs 1070 s; to `Cc1nn(-c2nc3ccccc3[nH]2)c2c1C(=O)CC(c1ccc(C(C)C)cc1)C2` (centres undefined), 1230 s; to `COc1ccc(N2CC(c3nc(-c4oc5ccc(OC)cc5c4C)no3)CC2=O)cc1` (centres undefined), 1020 s. For `OC[C@@H]1CNC[C@H]1C1CCN(Cc2ccc(Cl)c(F)c2)CC1` the value was 542 s; for `Cc1cc(C(=O)NCCc2c[nH]c3ccccc23)c2c(=O)n(C)c(=O)n(C)c2n1`, 742 s; for `Cc1ccc(Cn2c(=O)n(CCNC(=O)c3ccco3)c3ncccc32)cc1`, 760 s.

The compound `CCN1C(=O)CCC2(C(=O)Nc3ccc(OC)cc3OC)CCCC=C12` (centres undefined) had an RP-LC retention time of 789 s. To `CCCCN1CCc2nc(Nc3cc(OC)ccc3OC)ncc2C1` belongs 655 s; to `CCN(CC)CCNC(=O)c1cc2n(n1)CCCN(Cc1ccc(F)cc1)C2=O`, 556 s; to `Cc1cc(C)c(C(=O)N2CCC(CC(=O)NCc3cccc(Cl)c3)CC2)[nH]1`, 804 s. For `Cc1sc2ccn(CC(C)C)c(=O)c2c1C(=O)NCc1ccc(F)cc1F` the value was 983 s; for `CCCCNc1nnc(-c2nnc(C)o2)c2ccccc12`, 637 s; for `CNC(=O)C1CCCN(c2nc3ncn(CC(=O)Nc4cccc(F)c4)c(=O)c3s2)C1` (centres undefined), 645 s.

Consider `Cc1ccc(-c2csc(NC(=O)CSc3nc4c(cc3C#N)CCC4)n2)cc1`, for which the RP-LC retention time came out at 1210 s. To `CC(C)NC(=O)c1ccccc1OCC1CCCN(C2CCC2)C1` (centres undefined) belongs 606 s. `Cn1nccc1C(=O)Nc1ccsc1-c1nc(-c2ccccc2)no1` came in with an RP-LC retention time of 1280 s. `Cc1oc(-c2[nH]ncc2C(=O)N2CCCC2)cc1S(=O)(=O)NCc1ccc(Cl)cc1`: the RP-LC retention time came to 737 s. For `Cc1nc(-c2cnccn2)nc2c1CCC(=O)N2Cc1ccco1` the value was 683 s; for `COc1ccc(-c2nc3cccnc3n2C2CCN(C(=O)c3ccco3)C2)cc1` (centres undefined), 685 s. Compound `CN(C(=O)Cn1cnc2c(-c3ccc(F)cc3)csc2c1=O)c1ccccc1` returned an RP-LC retention time of 948 s. For `CCc1nc(-n2cccc2)sc1C(=O)Nc1ccc(Cl)cc1` the value was 1180 s.

`CCC(=O)N1CCc2cc(C(=O)NC(C)C)ccc21` had an RP-LC retention time of 685 s. Turning to `CCOc1nc2c(c(C)nn2-c2cccc(C)c2)c(C)c1CCC(=O)N1CCN(c2ccccn2)CC1`, the RP-LC retention time was 910 s.

Compound `Cc1ccc(N2C=C(C(=O)N3CCOCC3)S(=O)(=O)c3ccc(F)cc32)cc1F` had an RP-LC retention time of 822 s. `NC(=O)Cc1csc(NC(=O)c2coc(NC(=O)c3ccccc3)n2)n1` yielded an RP-LC retention time of 586 s. To `COc1cccc(-c2noc(N3CCN(c4ccccn4)CC3)n2)c1OC` belongs 645 s; to `CCC(C)NC(=O)Cn1cccc(-c2nc(-c3ccc(OC)c(OC)c3)no2)c1=O` (centres undefined), 714 s. As to `Cc1cc(C)cc(NC(=O)Cn2nc(N3CCC(C)CC3)c3ccccc3c2=O)c1`, the RP-LC retention time amounted to 1100 s.

`Cc1noc(-c2cc(=O)n(CC(=O)Nc3ccccc3)c3ccccc23)n1`: the RP-LC retention time came out at 840 s. For `CS(=O)(=O)N1CCC(C(=O)Nc2ccc(F)cc2)Oc2ccc(Cl)cc21` (centres undefined), the RP-LC retention time worked out at 903 s. For `Cc1cnc(-c2ccccc2)n1C1CCN(S(=O)(=O)c2ccc(C#N)cc2)C1` (centres undefined) the value was 680 s. For `O=C(c1ccccn1)N1CCN(c2cc(-c3ccccc3)ncn2)CC1` the value was 551 s; for `Cc1ccc(S(=O)(=O)N2CCc3c(c(-c4nnc(-c5ccc(F)cc5)o4)nn3C)C2)cc1C`, 851 s.

With `O=C(Cc1c[nH]c2ncccc12)NCc1ccc(C(F)(F)F)cc1`, the RP-LC retention time came out at 677 s. Take `O=C(NCc1ccc(N2CCOCC2)cc1)C1CCCN(c2cnc3nccnc3c2)C1` (centres undefined): the RP-LC retention time worked out at 728 s. Compound `Cc1nn2c(CNS(=O)(=O)c3ccc(F)c(F)c3)c(-c3ccccc3)nc2s1` registered an RP-LC retention time of 906 s. For `CCN(CC)c1nc2cc(C(=O)OC)ccc2c(=O)n1-c1cc(F)cc(F)c1` the value was 1180 s. In turn, `COc1cc(OC)cc(N2C=C(C#N)S(=O)(=O)c3ccc(C)cc32)c1` yielded an RP-LC retention time of 948 s. To `Cc1cnc(C(=O)N2CCCC2c2nc(CCOCC3CC3)no2)cn1` (centres undefined) belongs 733 s. As for `COc1ccc(-c2nnc(CC(=O)NCCC3=CCCCC3)o2)cc1`, the RP-LC retention time came to 889 s.

`CCOC(=O)COC(=O)c1cn(-c2cccc(C)c2)c(=O)c2ccccc12` had an RP-LC retention time of 718 s. To `CCc1ccc(-c2nc3sc(C(=O)NC)c(C)n3c2NCCOC)cc1` belongs 754 s; to `COc1ccc(-c2cc(=O)c3cc(OC(=O)c4ccncc4)ccc3o2)cc1`, 832 s; to `CCOc1ccccc1NC(=O)Cn1nc2cc(C)nc(-c3ccccc3)n2c1=O`, 838 s. As to `CCc1nc(-c2csc(S(=O)(=O)N3CCCC(C(=O)N(C)c4ccc(C)c(C)c4)C3)c2)no1` (centres undefined), the RP-LC retention time is 1140 s.

In the case of `Cc1ccc(F)c(NS(=O)(=O)c2cn(CC(C)C)c3ncccc23)c1`, the RP-LC retention time was 932 s. For `O=C(CCc1nc2cccnc2n1Cc1cccs1)NCCc1c[nH]c2ccccc12` the value was 752 s. For `O=C(CC1CCOC2(CCN(Cc3ccsc3)CC2)C1)N1CCOCC1` (centres undefined) the value was 570 s; for `Cc1cccc(-c2nc3ccccn3c2NC(=O)Nc2ccccc2)c1`, 665 s; for `O=C(Cn1cccc(-c2nc(-c3ccccc3)no2)c1=O)Nc1cc(C(F)(F)F)ccc1Cl`, 1040 s.

On to `COc1ccc(C2(C(=O)N3CCC(Cc4ncc(C)n4CC4CC4)C3)CC2)cc1` (centres undefined), for which the RP-LC retention time is 654 s.

As for `CCCn1c(C)cnc1C1CN(S(=O)(=O)c2ccc(C)c(Cl)c2)C1`, the RP-LC retention time came to 710 s.

`COCc1nc(C2CCN(C(=O)Nc3ccc4c(c3)OCCO4)C2)no1` (centres undefined) yielded an RP-LC retention time of 662 s. For `CC(C)(C)c1noc(-c2ccnc(-n3cnc(C(=O)N4CCOCC4)c3)c2)n1` the value was 808 s; for `CN(C)S(=O)(=O)c1ccc2c(c1)N(CC(=O)NCCCN1CCCC1)C(=O)C1CCCCN21` (centres undefined), 614 s. For `COCCn1cc(C(=O)Nc2ccccc2)c2nn(-c3ccccc3)c(=O)c-2c1` the value was 937 s; for `CCN1c2ccc(C)cc2C(=O)NC12CCN(C(=O)c1cccc(Cl)c1)CC2`, 603 s.

As to `CC(C(=O)Nc1ccc(Cl)cc1)C1CCN(C(=O)Nc2ccccc2)CC1` (centres undefined), the RP-LC retention time came to 910 s. For `COC(=O)c1c(C)[nH]c(C(=O)N2CCCC(C(=O)NCCN(C)C3CCCCC3)C2)c1C` (centres undefined) the value was 626 s. On to `CCOC(=O)c1c(C)[nH]c(C(=O)N2CCCC(C(=O)NC3CCCCC3)C2)c1C` (centres undefined), for which the RP-LC retention time came to 838 s. To `CCCc1noc(-c2ccnc(-n3cnc(C(=O)N4CCCC4)c3)c2)n1` belongs 789 s; to `Cc1[nH]c(C(=O)N2CCC(CC(=O)NC3CCCCCC3)CC2)c(C)c1C(=O)OC(C)C`, 886 s; to `O=C(CN1C(=O)CCS(=O)(=O)c2ccccc21)NCCc1ccccc1`, 745 s. To `COc1ccc(C(O)CN2CCN(c3ccccn3)CC2)cc1` (centres undefined) belongs 540 s; to `COc1ccc(-n2ccc(=O)c(-c3nc(-c4cc(OC)cc(OC)c4)no3)n2)cc1`, 887 s; to `O=C(NCCCN1CCOCC1)c1ccc(OCc2nnc(C(=O)Nc3ccccc3F)s2)cc1`, 658 s. To `CCC1CN(C(=O)N2CCC(C(=O)NCCCN3CCN(C)CC3)CC2)c2cc(C)ccc2O1` (centres undefined) belongs 617 s. Regarding `COc1ccc2[nH]cc(CCNC(=O)c3cn(-c4ccc(F)cc4)nn3)c2c1`, the RP-LC retention time turned out to be 868 s. To `c1ccc(-c2csc(Nc3ncccn3)n2)cc1` belongs 906 s; to `CCN1CCN(C(=O)c2cc3n(n2)CC(C)(C(=O)NC2CCCCCC2)N(C)C3=O)CC1` (centres undefined), 611 s. To `COCc1ncc(C)n1CC1CN(C(=O)c2ocnc2C)C1` belongs 511 s; to `CC1CN(C(=O)CSc2cn(CC(=O)N3CCCCCC3)c3ccccc23)CC(C)O1` (centres undefined), 897 s.

Turning to `COc1ccc(SCCc2ccncc2)cc1`, the RP-LC retention time was found to be 662 s.

`Fc1ccccc1Cc1nc(-c2cccc(-c3ccn[nH]3)c2)no1` showed an RP-LC retention time of 939 s.

`Cn1c(=O)n([C@H]2CCCN(C(=O)Nc3ccc(F)cc3F)C2)c2ncccc21` showed an RP-LC retention time of 752 s.

Turning to `O=C(NCc1ccc2c(c1)OCO2)c1ccc(-c2cccs2)nc1`, the RP-LC retention time came to 863 s.
